From patent publication US10781182B2, “Compounds, process for obtaining the compounds, pharmaceutical composition, use of the compounds and method for treating psychiatric disorders and/or sleep disorders” (ACHÉ LABORATÓRIOS FARMACÊUTICOS S.A., priority 2016, dated 2020) come the findings set out here.

Values after ≈ are worked out from the molar mass of the structure shown. Like-named read-outs stand apart in the source and are kept apart here.

The nature of series [1]: Permeability in Caco-2 cells. To be noted: human, Caco-2, pH 6.5, 37° C. Format: in vitro ADME. On the procedure:
Permeability tests were performed using Caco-2 cells, a colorectal epithelial adenocarcinoma cell line. These cells resemble intestinal epithelial cells in some aspects, such as the formation of a polarized monolayer, a well-defined brush border on the apical surface, and intercellular junctions.
The test is performed in both directions [apical to basolateral (A-B) and basolateral to apical (B-A)] through the cell monolayer, allowing an efflux ratio that provides an indicator as to whether a compound undergoes active efflux. Particle detection was performed with HPLC-MS/MS (mass spectrometry) according to the calculation of the peak area of the result. MS/MS was performed by combining two mass detectors in a single instrument.
A-B permeability was performed at pH 6.5/7.4 with incubation time of 0 and 60 minutes at 37° C. and B-A permeability was performed at pH 6.5/7.4 with incubation time of 0 and 40 minutes at 37° C.

A short description of series [2]: Water solubility (shake-flask, PBS pH 7.4). To be noted: aqueous buffer, thermodynamic from solid. Format: physicochemical. On the procedure: In addition, chromatographic purity (%) was defined as the calculation of the main peak area relative to the calculation of the peak area integrate of the standard HPLC calibration chromatogram. A standard calibration chromatogram was then generated for each compound tested along with a UV/VIS spectrum with maximal labeled absorbance. The shake-flash technique was used with constant stirring during incubation to keep a uniform medium for 24 hours in PBS at pH 7.4.

A short description of series [3]: Pharmacokinetics (PK) in mouse, I.V. and oral. Format: in vivo, CD-1 mice. On the procedure: PK tests were performed with CD-1 mice, using 4 animals per molecule tested, 2 animals for pharmacokinetic analysis by intravenous (IV) administration and 2 animals for oral administration. The treatment was carried out in a single dose: I.V. group with dose of 1 mg/kg and Oral group with dose of 10 mg/kg. […] Blood collection was performed after euthanasia at 08 defined time points and at 24 hours post-dose. The pharmacokinetic analysis parameters detected for Group IV were: half-life (t½), drug concentration at time zero (C0), last measurable plasma concentration (AUClast), area under the plasma concentration curve extrapolation percentage (AUC % ext), area under the plasma concentration curve extrapolation to infinity (AUCinf), volume of distribution (Vz), steady state volume of distribution (Vss), clearance (CL) and mean residence time (MRT). The parameters evaluated for the Oral group were: bioavailability (F %), maximum concentration reached (Cmax), time to reach maximum plasma concentration (Tmax), last measurable plasma concentration (AUClast), area under the plasma concentration curve extrapolation percentage (AUC % ext), area under the plasma concentration curve extrapolation to infinity (AUCinf), area under the plasma concentration curve extrapolation to infinity versus dose (AUCinf/Dose), half-Life (t½), and mean residence time (MRT).

The next series deals with MT1 receptor (Homo sapiens (Human), UniProt P48039). Description: MT1 functional assay. Conditions: MT1 and MT2 receptors.
Where [4] appears, read: CD-1, plasma, intravenous 1 mg/kg.

MT1 receptor, sequence (P48039 whole entry): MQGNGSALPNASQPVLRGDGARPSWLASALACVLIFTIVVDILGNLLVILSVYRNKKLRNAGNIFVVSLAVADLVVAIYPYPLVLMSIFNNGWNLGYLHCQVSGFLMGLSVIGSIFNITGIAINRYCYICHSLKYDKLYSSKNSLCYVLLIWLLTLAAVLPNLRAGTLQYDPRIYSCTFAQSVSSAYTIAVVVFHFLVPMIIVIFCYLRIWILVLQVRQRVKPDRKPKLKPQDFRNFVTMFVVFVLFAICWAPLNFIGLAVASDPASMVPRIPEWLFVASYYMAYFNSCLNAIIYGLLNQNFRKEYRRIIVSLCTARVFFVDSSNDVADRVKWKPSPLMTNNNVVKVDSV

With `COc1ccc2cccc(CCNC(C)=O)c2c1` [IA2-76, agomelatine, reference compound], the Papp A→B at 60 min in series [1] (apical to basolateral, 60 min, read-out: Permeability A-B (pH 6.5/7.4)) stood at 83.9 ×10⁻⁶ cm/s. In series [1] (basolateral to apical, 40 min, read-out: Permeability B-A (pH 6.5/7.4)), the Papp B→A at 40 min came out at 48.5 ×10⁻⁶ cm/s. The same compound registered a solubility at 24 h in series [2] of 196 µM (≈ 47.7 µg/mL). In series [3] (setting [4]), this compound showed a C0 of 811 ng/mL, a clearance of 116 mL/min/kg and a half-life of 8.94 min. Besides, the AUC(0-t) in series [3] (CD-1, plasma, oral 10 mg/kg) was determined as 30.3 ng·h/mL. Moreover, the bioavailability in series [3] (CD-1, plasma, oral 10 mg/kg vs intravenous 1 mg/kg, read-out: F (%) bioavailability) worked out at 2.42%. Further, the maximum concentration (Cmax) in series [3] (CD-1, plasma, oral 10 mg/kg, read-out: Cmax) came to 21.9 ng/mL. In addition, in series [3] (CD-1, plasma, oral 10 mg/kg, read-out: Tmax), the time of peak concentration (Tmax) is 15 min. Further, in series [3] (oral 10 mg/kg), the maximum concentration (Cmax) is 21.9 ng/mL and the Tmax came to 15 min. Further, the “F (%) bioavailability” value in series [3] (oral 10 mg/kg vs intravenous 1 mg/kg) worked out at 2.42%. Further, the “intrinsic activity (agonist, antagonist or inverse agonist)” value on MT1 receptor was “agonist”.
